Measurements as given in patent US8791118B2, “Pyridopyrazines as highly selective ras-Raf-Mek-Erk signal transduction pathway inhibitors” (Aeterna Zentaris GmbH, priority 2011, dated 2014).

Experiments:
Hct116 = assay: XTT assay for anti-proliferative effect; format: cell-based; details: Homo sapiens, HCT-116; Hct116 tumour cell line, ~48 h incubation
Protocol: The principle of this test is based on the intracellular reduction of the tetrazolium dye XTT (sodium 3′-[1-(phenylaminocarbonyl)-3,4-tetrazolium]-bis(4-methoxy-6-nitro)benzene sulfonic acid, Sigma) to a formazan dye by mitochondrial dehydrogenases. The dye is only formed by metabolically active cells and its photometrically measurable intensity is a quantitative indicator for the presence of living cells. The reduction of dye formation by incubation of the cells with substances serves as a parameter for the anti-proliferative effect.
The tumour cell lines (ATCC) were injected into 96-well microtitre plates in a defined cell number (1250 cells/well for Hct116) and then incubated overnight in an incubator at 37° C., 5% CO2 and 95% air humidity. The test substances were prepared as stock solutions (10 mM) in DMSO. To determine the EC50 values the potential inhibitor substances were added to the cells in half-logarithmically graded dilutions, resulting in final concentrations of 1.58 nM-50 μM. The cell plates were then incubated for ˜48 h in an incubator at 37° C., 5% CO2 and 95% air humidity.
For the detection reaction the substrate XTT was mixed with PMS (N-Methyl dibenzopyrazine methylsulfate, Sigma) and added to the cells so that a final concentration of 325 μg XTT/ml and 2.5 μg PMS/ml was obtained. It was then incubated for 3 h at 37° C., 95% air humidity. The formazan salt formed by the cellular dehydrogenases could then be quantified by adsorption at 490 nm.
The % inhibition value was evaluated by means of the following formula from the values for the optical densities measured in each case at 490 nm:
Eight determinations were made for each control and two for the substance samples. The 0% control contains no cells, the 100% control (proliferation control) contains no test substance. The EC50 values were determined using GraphPadPrism.

Erk2 = Erk2 (Homo sapiens, UniProt P28482); assay: Erk2 alpha kinase assay (cell-free, ALPHA technology); format: biochemical; details: 10 μM ATP
Chain of Erk2 (P28482 2-360 limits assumed): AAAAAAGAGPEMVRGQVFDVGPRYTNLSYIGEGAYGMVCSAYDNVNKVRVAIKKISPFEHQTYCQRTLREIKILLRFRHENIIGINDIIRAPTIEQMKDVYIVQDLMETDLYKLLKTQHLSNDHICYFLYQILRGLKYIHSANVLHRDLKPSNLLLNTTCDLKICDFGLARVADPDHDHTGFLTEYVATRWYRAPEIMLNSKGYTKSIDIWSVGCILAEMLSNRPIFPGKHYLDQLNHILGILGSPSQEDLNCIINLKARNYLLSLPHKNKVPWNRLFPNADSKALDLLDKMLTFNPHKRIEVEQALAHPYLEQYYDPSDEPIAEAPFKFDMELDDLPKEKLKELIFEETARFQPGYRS
Protocol: The inhibitory effect of the compounds according to the invention was tested on various serine/threonine, tyrosine and lipid kinases in enzymatic assays. Recombinant human kinases such as, for example, Erk2, were used in this case, partly as full-length kinases, partly as shortened fragments, but at least consisting of the functional kinase domains. The commercial kinase proteins (Proqinase, Upstate) were used as recombinant fusion proteins with GST (glutathion-S-transferase) or His-Tag. Depending on the type of substrate, the various kinase reactions were quantified by means of suitable ALPHA™ beads (Perkin-Elmer). The substance testing is described in detail hereinafter for the Erk assay. […] a) MAPK-ALPHAs (e.g. […] The fluorescence was detected the following morning in a Envision plate reader (Perkin-Elmer). The %-inhibition values per substance concentration were calculated by means of the following formula from the raw data determined in the Envision plate reader[…]: Eight determinations were made for each control and two for the substance samples. […] The IC50 values were determined using GraphPadPrism.

EC50 (Hct116) [nM]	melting point [°C]	IC50 (Erk2) [nM]	SMILES
563	208 to 210	3	Cn1cc(-c2cnc3ccc(NC(=O)NCCCC(C)(C)c4ccccc4)nc3n2)cn1 [Compound 169, 1-(4-Methyl-4-phenyl-pentyl)-3-[3-(1-methyl-1H-pyrazol-4-yl)-pyrido[2,3-b]pyrazin-6-yl]-urea]
149	185 to 188	4	CCCn1cc(-c2cnc3ccc(NC(=O)N[C@H](C)CCCc4ccccc4)nc3n2)cn1 [Compound 170, 1-((R)-1-Methyl-4-phenyl-butyl)-3-[3-(1-propyl-1H-pyrazol-4-yl)-pyrido[2,3-b]pyrazin-6-yl]-urea]
888	192 to 194	39	O=C(NCCCCc1ccccc1)Nc1ccc2ncc(-c3ccc(OCCOCCO)cc3)nc2n1 [Compound 201, 1-(3-{4-[2-(2-Hydroxy-ethoxy)-ethoxy]-phenyl}-pyrido[2,3-b]pyrazin-6-yl)-3-(4-phenyl-butyl)-urea]

SMILES	EC50 (Hct116) [nM]	melting point [°C]	IC50 (Erk2) [nM]
O=C(NCCCCc1ccccc1)Nc1ccc2ncc(-c3ccc(OP(=O)(O)O)cc3)nc2n1 [Compound 165, Phosphoric acid mono-(4-{6-[3-(4-phenyl-butyl)-ureido]-pyrido[2,3-b]pyrazin-3-yl}-phenyl) ester]	3190	202	3
